Laboratory results: patent US12376590B2, “Compositions comprising pyridine carboxylate herbicides and azole carboxylate safeners” (Corteva Agriscience LLC, priority 2018, dated 2025)
Several values for one entry are separate records, joined by “and”; a condition that tells them apart may be missing. Equal values may be shown once.

Assays:
Test in all cases: Greenhouse postemergence herbicidal safening trial, visual injury after 20-22 d
spring wheat (TRZAS) = format: in vivo, Triticum aestivum; settings: applied alone
Description: (§1) Greenhouse Trial Methodology—Evaluation of Postemergence Herbicidal Safening in Crops
(§2) Seeds of the desired test plant species were planted in a 90:10% v/v (volume/volume) mixture of PRO-MIX® BX (Premier Tech Horticulture, Quakertown, PA, USA) and PROFILE® GREENS GRADE™ (Profile Products LLC, Buffalo Grove, IL, USA) planting mixture, which typically has a pH of 5.2 to 6.2 and an organic matter content of at least 50 percent, in plastic pots with a surface area of 103.2 square centimeters (cm^2). When required to ensure good germination and healthy plants, a fungicide treatment and/or other chemical or physical treatment was applied. The plants were grown for 7-36 days (d) in a greenhouse with an approximate 14-hour (h) photo-period which was maintained at about 23° C. during the day and 22° C. during the night. Nutrients and water were added on a regular basis and supplemental lighting was provided with overhead metal halide 1000-Watt lamps as necessary. The plants were employed for testing when they reached the second or third true leaf stage.
(§3) Emulsifiable concentrates of each of each pyridine carboxylate herbicide (Compound A or Compound B) were prepared at 100 grams acid equivalent per liter (g ae/L). An aliquot of each emulsifiable concentrate was placed in a 25 mL glass vial and diluted with an aqueous mixture of 1.25% (v/v) ACTIROB® B esterified rapeseed oil (Bayer Crop Science, Research Triangle Park, NC, USA) or MSO® Concentrate with LECI-TECH® methylated soybean oil (Loveland Products, Loveland, CO, USA) to obtain concentrated stock solutions at the highest application rate for each herbicide, based upon a 12 milliliter (mL) application volume at a rate of 187 liters per hectare (L/ha). The concentrated stock solutions were further diluted with an aqueous mixture of 1.25% v/v ACTIROB® B or MSO® Concentrate with LECI-TECH® to obtain stock solutions at reduced application rates for each herbicide. Spray solutions of the herbicide combinations (Compound A or Compound B plus safener) were prepared by adding weighed amounts or aliquots of the azole carboxylate safener to the stock solutions of Compound A or Compound B to form 12-mL spray solutions in two-way combinations.
(§4) The spray solutions were applied to the plant material with an overhead Mandel track sprayer equipped with 8002E nozzles calibrated to deliver 187 L/ha over an application area of 0.503 square meters (m^2) at a spray height of 18 inches (43 centimeters (cm)) above the average plant canopy. Control plants were sprayed in the same manner with the solvent blank. All herbicide (component a) application rates are given as “g ae/ha” and all safener (component b) application rates are given as “g ai/ha.”
(§5) The treated plants and control plants were placed in a greenhouse as described above and watered by sub-irrigation to prevent wash-off of the test compounds. After 20-22 d, the condition of the test plants as compared with that of the control plants was determined visually and scored on a scale of 0 to 100 percent where 0 corresponds to no injury and 100 corresponds to complete kill.

winter wheat (TRZAW) = format: in vivo, Triticum aestivum
Description: as §1, §2, §3, §4, §5

spring barley (HORVS) = format: in vivo, Hordeum vulgare; settings: applied alone
Description: as §1, §2, §3, §4, §5

maize (ZEAMX) = format: in vivo, Zea mays
Description: as §1, §2, §3, §4, §5

common rice (ORYSA) = format: in vivo, Oryza sativa
Description: as §1, §2, §3, §4, §5

winter rape (BRSNW) = format: in vivo, Brassica napus
Description: as §1, §2, §3, §4, §5

wild chamomile (MATCH) = format: in vivo, Matricaria chamomilla; settings: applied alone, 20 g/ha
Description: as §1, §2, §3, §4, §5

Russian thistle (SASKR) = format: in vivo, Salsola kali; settings: applied alone, 20 g/ha
Description: as §1, §2, §3, §4, §5

pigweed (AMARE) = format: in vivo, Amaranthus retroflexus
Description: as §1, §2, §3, §4, §5

nutsedge (CYPES) = format: in vivo, Cyperus esculentus
Description: as §1, §2, §3, §4, §5

common sunflower (HELAN) = format: in vivo, Helianthus annuus
Description: as §1, §2, §3, §4, §5

velvetleaf (ABUTH) = format: in vivo, Abutilon theophrasti
Description: as §1, §2, §3, §4, §5

blackgrass (ALOMY) = format: in vivo, Alopecurus myosuroides
Description: as §1, §2, §3, §4, §5

wild oat (AVEFA) = format: in vivo, Avena fatua
Description: as §1, §2, §3, §4, §5

[1] = system: common lambsquarters (CHEAL); format: in vivo, Chenopodium album L.
Description: as §1, §2, §3, §4, §5

Canada thistle (CIRAR) = format: in vivo, Cirsium arvense
Description: as §1, §2, §3, §4, §5

large crabgrass (DIGSA) = format: in vivo, Digitaria sanguinalis
Description: as §1, §2, §3, §4, §5

barnyardgrass (ECHCG) = format: in vivo, Echinochloa crus-galli
Description: as §1, §2, §3, §4, §5

Canada horseweed (ERICA) = format: in vivo, Erigeron canadensis
Description: as §1, §2, §3, §4, §5

soybean (GLXMA) = format: in vivo, Glycine max
Description: as §1, §2, §3, §4, §5

[2] = system: ivyleaf morningglory (IPOHE); format: in vivo, Ipomoea hederacea
Description: as §1, §2, §3, §4, §5

[3] = system: herbicide-resistant kochia (KCHSC-R); format: in vivo, Kochia scoparia
Description: as §1, §2, §3, §4, §5

kochia (KCHSC) = format: in vivo, Kochia scoparia
Description: as §1, §2, §3, §4, §5

[4] = system: Chinese sprangletop (LEFCH); format: in vivo, Leptochloa chinensis
Description: as §1, §2, §3, §4, §5

Italian ryegrass (LOLMU) = format: in vivo, Lolium multiflorum
Description: as §1, §2, §3, §4, §5

wild buckwheat (POLCO) = format: in vivo, Polygonum convolvulus
Description: as §1, §2, §3, §4, §5

giant foxtail (SETFA) = format: in vivo, Setaria faberi
Description: as §1, §2, §3, §4, §5

Johnson grass (SORHA) = format: in vivo, Sorghum halepense
Description: as §1, §2, §3, §4, §5

wild pansy (VIOTR) = format: in vivo, Viola tricolor
Description: as §1, §2, §3, §4, §5

## N#CCOC(=O)c1nc(-c2ccc3cc[nH]c3c2F)c(F)c(N)c1Cl [Compound A, cyanomethyl 4-amino-3-chloro-5-fluoro-6-(7-fluoro-1H-indol-6-yl)pyridine-2-carboxylate]
Spring wheat (TRZAS); 20 g/ha
  % visual injury Ob: 25%
Spring wheat (TRZAS); 40 g/ha
  % visual injury Ob: 23% and 30%
Winter wheat (TRZAW); Compound A 20 g/ha
  % visual injury Ob: 25%
Winter wheat (TRZAW); applied alone, 20 g/ha
  % visual injury Ob: 25%
Winter wheat (TRZAW); applied alone, 40 g/ha
  % visual injury Ob: 25%
Spring barley (HORVS); 20 g/ha
  % visual injury Ob: 0%
Spring barley (HORVS); 40 g/ha
  % visual injury Ob: 17%
Maize (ZEAMX); Compound A 20 g/ha
  % visual injury Ob: 13%
Maize (ZEAMX); applied alone, 20 g/ha
  % visual injury Ob: 13%
Maize (ZEAMX); applied alone, 40 g/ha
  % visual injury Ob: 55%
Common rice (ORYSA); Compound A 20 g/ha
  % visual injury Ob: 10%
Common rice (ORYSA); applied alone, 20 g/ha
  % visual injury Ob: 10%
Winter rape (BRSNW); Compound A 20 g/ha
  % visual injury Ob: 85%
Winter rape (BRSNW); applied alone, 20 g/ha
  % visual injury Ob: 95% and 85%
Wild chamomile (MATCH)
  % visual injury Ob: 50%
Russian thistle (SASKR)
  % visual injury Ob: 60%
Pigweed (AMARE); Compound A 20 g/ha
  % visual injury Ob: 93%
Pigweed (AMARE); applied alone, 20 g/ha
  % visual injury Ob: 93%
Pigweed (AMARE); applied alone, 40 g/ha
  % visual injury Ob: 100%
Nutsedge (CYPES); Compound A 20 g/ha
  % visual injury Ob: 30%
Nutsedge (CYPES); applied alone, 20 g/ha
  % visual injury Ob: 30%
Nutsedge (CYPES); applied alone, 40 g/ha
  % visual injury Ob: 73%
Common sunflower (HELAN); Compound A 20 g/ha
  % visual injury Ob: 95%
Common sunflower (HELAN); applied alone, 20 g/ha
  % visual injury Ob: 95%
Common sunflower (HELAN); applied alone, 40 g/ha
  % visual injury Ob: 100%
Velvetleaf (ABUTH); Compound A 20 g/ha
  % visual injury Ob: 95%
Velvetleaf (ABUTH); applied alone, 20 g/ha
  % visual injury Ob: 95%
Blackgrass (ALOMY); Compound A 20 g/ha
  % visual injury Ob: 0%
Blackgrass (ALOMY); applied alone, 20 g/ha
  % visual injury Ob: 0%
Wild oat (AVEFA); Compound A 20 g/ha
  % visual injury Ob: 0%
Wild oat (AVEFA); applied alone, 20 g/ha
  % visual injury Ob: 0%
[1]; Compound A 20 g/ha
  % visual injury Ob: 88%
[1]; applied alone, 20 g/ha
  % visual injury Ob: 88%
Canada thistle (CIRAR); Compound A 20 g/ha
  % visual injury Ob: 95%
Canada thistle (CIRAR); applied alone, 20 g/ha
  % visual injury Ob: 95%
Large crabgrass (DIGSA); Compound A 20 g/ha
  % visual injury Ob: 30%
Large crabgrass (DIGSA); applied alone, 20 g/ha
  % visual injury Ob: 30%
Barnyardgrass (ECHCG); Compound A 20 g/ha
  % visual injury Ob: 85%
Barnyardgrass (ECHCG); applied alone, 20 g/ha
  % visual injury Ob: 85%
Canada horseweed (ERICA); Compound A 20 g/ha
  % visual injury Ob: 95%
Canada horseweed (ERICA); applied alone, 20 g/ha
  % visual injury Ob: 95%
Soybean (GLXMA); Compound A 20 g/ha
  % visual injury Ob: 100%
Soybean (GLXMA); applied alone, 20 g/ha
  % visual injury Ob: 100%
[2]; Compound A 20 g/ha
  % visual injury Ob: 0%
[2]; applied alone, 20 g/ha
  % visual injury Ob: 0%
[3]; Compound A 20 g/ha
  % visual injury Ob: 90%
[3]; applied alone, 20 g/ha
  % visual injury Ob: 90%
Kochia (KCHSC); Compound A 20 g/ha
  % visual injury Ob: 97%
Kochia (KCHSC); applied alone, 20 g/ha
  % visual injury Ob: 97%
[4]; Compound A 20 g/ha
  % visual injury Ob: 60%
[4]; applied alone, 20 g/ha
  % visual injury Ob: 60%
Italian ryegrass (LOLMU); Compound A 20 g/ha
  % visual injury Ob: 5%
Italian ryegrass (LOLMU); applied alone, 20 g/ha
  % visual injury Ob: 5%
Wild buckwheat (POLCO); Compound A 20 g/ha
  % visual injury Ob: 100%
Wild buckwheat (POLCO); applied alone, 20 g/ha
  % visual injury Ob: 100%
Giant foxtail (SETFA); Compound A 20 g/ha
  % visual injury Ob: 65%
Giant foxtail (SETFA); applied alone, 20 g/ha
  % visual injury Ob: 65%
Johnson grass (SORHA); Compound A 20 g/ha
  % visual injury Ob: 0%
Johnson grass (SORHA); applied alone, 20 g/ha
  % visual injury Ob: 0%
Wild pansy (VIOTR); Compound A 20 g/ha
  % visual injury Ob: 30%
Wild pansy (VIOTR); applied alone, 20 g/ha
  % visual injury Ob: 30%
